Active and inactive are the calls of the source. The rule behind the calls is not given here.
Tests used:
HUVEC [1] = assay: Cytoprotective activity against oxLDL-induced HUVEC cell damage assessed as increase in cell viability at 10 uM by SRB assay; format: functional, cell-based; conditions: Homo sapiens
[2] = molecular target: T1, Nuclear factor erythroid 2-related factor 2 (Homo sapiens) (UniProt Q16236); assay: Induction of Nrf2/ARE activation in human Hela cells at 5 uM measured after 12 to 24 hrs by luciferase reporter gene assay relative to control; format: cell-based; conditions: filed as activator, time 12-24 hrs
T1 sequence (whole entry): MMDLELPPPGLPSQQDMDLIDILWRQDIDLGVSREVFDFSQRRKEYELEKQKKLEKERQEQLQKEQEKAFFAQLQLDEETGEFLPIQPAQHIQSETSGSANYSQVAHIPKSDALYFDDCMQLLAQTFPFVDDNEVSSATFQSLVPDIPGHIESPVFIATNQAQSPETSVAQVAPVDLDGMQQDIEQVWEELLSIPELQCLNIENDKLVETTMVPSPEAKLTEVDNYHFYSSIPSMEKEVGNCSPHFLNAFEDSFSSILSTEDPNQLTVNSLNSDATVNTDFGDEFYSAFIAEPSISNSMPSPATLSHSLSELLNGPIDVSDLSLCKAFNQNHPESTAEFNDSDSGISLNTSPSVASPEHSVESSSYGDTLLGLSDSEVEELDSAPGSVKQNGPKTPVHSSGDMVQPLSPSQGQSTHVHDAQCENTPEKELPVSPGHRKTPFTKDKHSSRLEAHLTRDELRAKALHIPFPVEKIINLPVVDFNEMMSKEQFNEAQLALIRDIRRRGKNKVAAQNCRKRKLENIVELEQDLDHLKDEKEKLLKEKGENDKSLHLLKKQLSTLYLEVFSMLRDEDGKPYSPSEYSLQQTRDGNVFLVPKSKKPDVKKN

[3] = molecular target: T1, Nuclear factor erythroid 2-related factor 2 (Homo sapiens); assay: Induction of Nrf2/ARE activation in human Hela cells at 1 uM measured after 12 to 24 hrs by luciferase reporter gene assay relative to control; format: cell-based; conditions: filed as activator, time 12-24 hrs
HUVEC [4] = assay: Cytotoxicity against HUVEC assessed as effect on cell viability by SRB assay; format: toxicity, cell-based; conditions: human
[5] = molecular target: T1, Nuclear factor erythroid 2-related factor 2 (Homo sapiens); assay: Induction of Nrf2/ARE activation in human Hela cells at 10 uM measured after 12 to 24 hrs by luciferase reporter gene assay relative to control; format: cell-based; conditions: filed as activator, time 12-24 hrs
[6] = molecular target: T1, Nuclear factor erythroid 2-related factor 2 (Homo sapiens); assay: Induction of Nrf2/ARE activation in human Hela cells at 20 uM measured after 12 to 24 hrs by luciferase reporter gene assay relative to control; format: cell-based; conditions: filed as activator, time 12-24 hrs
HUVEC [7] = assay: Cytoprotective activity against high glucose-induced HUVEC cell damage assessed as increase in cell viability at 10 uM by SRB assay; format: functional, cell-based; conditions: Homo sapiens
HUVEC [8] = assay: Cytoprotective activity against oxLDL-induced apoptosis in HUVEC cells measured after 6 hrs by TUNEL assay; format: functional, cell-based; conditions: Homo sapiens, dose 5-10 µM
[9] = molecular target: T1, Nuclear factor erythroid 2-related factor 2 (Homo sapiens); assay: Induction of Nrf2 nuclear translocation in oxLDL-induced HUVEC cells at 5 to 10 uM measured after 6 hrs by immunofluorescence staining analysis; format: cell-based; conditions: filed as activator, dose 5-10 µM
[10] = molecular target: T1, Nuclear factor erythroid 2-related factor 2 (Homo sapiens); assay: Induction of Nrf2 nuclear translocation in high glucose-induced HUVEC cells at 5 to 10 uM measured after 24 hrs by immunofluorescence staining analysis; format: cell-based; conditions: filed as activator, dose 5-10 µM
HUVEC [11] = assay: Cytoprotective activity against high glucose-induced apoptosis in HUVEC cells measured after 24 hrs by TUNEL assay; format: functional, cell-based; conditions: Homo sapiens, dose 5-10 µM

Row | SMILES | fold change (FC) [2] | fold change (FC) [3] | fold change (FC) [5] | fold change (FC) [6] | Activity [9] | Activity [10] | Activity (HUVEC [1]) | Activity (HUVEC [4]) | Activity (HUVEC [7]) | Activity (HUVEC [8]) | Activity (HUVEC [11])
1 | O=C(/C=C/c1ccc(O)cc1)N1CCN(Cc2noc(Cc3c[nH]c4ccccc34)n2)CC1 | 3.44 | 1.52 | 6.25 | 5.41 | – | – | inactive | Non-Toxic | – | – | –
2 | Cc1ccc(C(=O)N2CCN(Cc3noc(Cc4c[nH]c5ccccc45)n3)CC2)cc1 | 1.11 | 1.04 | 1.23 | 1.36 | – | – | – | – | – | – | –
3 | O=C(/C=C/c1ccccc1O)N1CCN(Cc2noc(Cc3c[nH]c4ccccc34)n2)CC1 | 3.01 | 1.2 | 6.31 | 6.08 | – | – | – | – | – | – | –
4 | COc1ccccc1/C=C/C(=O)N1CCN(Cc2noc(Cc3c[nH]c4ccccc34)n2)CC1 | 2.41 | 1.23 | 3.12 | 4.25 | – | – | – | – | – | – | –
5 | COc1cc(OC)c(OC)cc1/C=C/C(=O)N1CCN(Cc2noc(Cc3c[nH]c4ccccc34)n2)CC1 | 2.79 | 1.32 | 5.79 | 5.46 | – | – | inactive | Non-Toxic | – | – | –
6 | COc1cccc(/C=C/C(=O)N2CCN(Cc3noc(Cc4c[nH]c5ccccc45)n3)CC2)c1OC | 3.65 | 2.15 | 6.91 | 6.37 | – | – | inactive | Non-Toxic | – | – | –
7 | O=C(/C=C/c1ccc(Cl)c(Cl)c1)N1CCN(Cc2noc(Cc3c[nH]c4ccccc34)n2)CC1 | 3.76 | 1.34 | 6.64 | 7.09 | – | – | Active | Non-Toxic | – | – | –
8 | N#Cc1ccc(C(=O)N2CCN(Cc3noc(Cc4c[nH]c5ccccc45)n3)CC2)cc1 | 1.25 | 1.18 | 1.37 | 1.4 | – | – | – | – | – | – | –
9 | CC(C)(C)c1cc(O)ccc1O | 1.24 | 1.17 | 1.98 | 2.78 | – | – | – | – | – | – | –
10 | O=C(/C=C/c1cccc(Br)c1)N1CCN(Cc2noc(Cc3c[nH]c4ccccc34)n2)CC1 | 1.86 | 1.31 | 3.97 | 2.56 | – | – | inactive | Non-Toxic | – | – | –
11 | COc1ccc(/C=C/C(=O)N2CCN(Cc3noc(Cc4c[nH]c5ccccc45)n3)CC2)cc1OC | 2.93 | 1.34 | 5.79 | 7.22 | – | – | – | – | – | – | –
12 | CS(=O)(=O)c1ccc(C(=O)N2CCN(Cc3noc(Cc4c[nH]c5ccccc45)n3)CC2)cc1 | 1.5 | 1.45 | 1.52 | 1.67 | – | – | – | – | – | – | –
13 | O=C(/C=C/c1ccc(Cl)cc1)N1CCN(Cc2noc(Cc3c[nH]c4ccccc34)n2)CC1 | 2.24 | 1.21 | 4.09 | 6.12 | – | – | Active | Non-Toxic | – | – | –
14 | COc1cc(/C=C/C(=O)N2CCN(Cc3noc(Cc4c[nH]c5ccccc45)n3)CC2)ccc1O | 2.34 | 1.29 | 3.12 | 3.56 | – | – | – | – | – | – | –
15 | COc1cc(/C=C/C(=O)N2CCN(Cc3noc(Cc4c[nH]c5ccccc45)n3)CC2)cc(OC)c1OC | 2.6 | 1.24 | 6.23 | 6.86 | – | – | – | – | – | – | –
16 | O=C(/C=C/c1cccc(O)c1)N1CCN(Cc2noc(Cc3c[nH]c4ccccc34)n2)CC1 | 4.71 | 2.3 | 7.04 | 7.21 | – | – | Active | Non-Toxic | – | – | –
17 | O=C(/C=C/c1ccc(O)c(O)c1)N1CCN(Cc2noc(Cc3c[nH]c4ccccc34)n2)CC1 | 2.96 | 1.41 | 6.92 | 7.86 | – | – | – | – | – | – | –
18 | COc1cc(/C=C/C(=O)N2CCN(Cc3noc(Cc4c[nH]c5ccccc45)n3)CC2)cc(OC)c1O | 1.87 | 1.23 | 2.65 | 3.08 | – | – | – | – | – | – | –
19 | O=C(/C=C/c1ccccc1)N1CCN(Cc2noc(Cc3c[nH]c4ccccc34)n2)CC1 | 1.32 | 1.05 | 2.57 | 2.89 | – | – | – | – | – | – | –
20 | COc1ccc(OC)c(/C=C/C(=O)N2CCN(Cc3noc(Cc4c[nH]c5ccccc45)n3)CC2)c1 | 1.77 | 1.12 | 4.35 | 3.66 | – | – | – | – | – | – | –
21 | O=C(/C=C/c1ccc2c(c1)OCO2)N1CCN(Cc2noc(Cc3c[nH]c4ccccc34)n2)CC1 | 2.07 | 1.12 | 4.97 | 3.24 | – | – | – | – | – | – | –
22 | COc1ccc(/C=C/C(=O)N2CCN(Cc3noc(Cc4c[nH]c5ccccc45)n3)CC2)cc1 | 1.65 | 1.22 | 1.96 | 2.07 | – | – | – | – | – | – | –
23 | O=C(c1ccccc1)N1CCN(Cc2noc(Cc3c[nH]c4ccccc34)n2)CC1 | 1.31 | 1.03 | 1.44 | 1.21 | – | – | – | – | – | – | –
24 | COc1cccc(/C=C/C(=O)N2CCN(Cc3noc(Cc4c[nH]c5ccccc45)n3)CC2)c1 | 1.89 | 1.09 | 2.97 | 4.07 | – | – | – | – | – | – | –

Now from value to compound, other results behind:

Row | fold change (FC) [2] | fold change (FC) [3] | fold change (FC) [5] | fold change (FC) [6] | Activity [9] | Activity [10] | SMILES | Activity (HUVEC [1]) | Activity (HUVEC [4]) | Activity (HUVEC [7]) | Activity (HUVEC [8]) | Activity (HUVEC [11])
25 | 1.25 | 1.12 | 1.31 | 1.54 | – | – | Brc1cccc(CN2CCN(Cc3noc(Cc4c[nH]c5ccccc45)n3)CC2)c1 | – | – | – | – | –
26 | 2.04 | 1.11 | 3.15 | 3.78 | – | – | CS(=O)(=O)c1ccc(CN2CCN(Cc3noc(Cc4c[nH]c5ccccc45)n3)CC2)cc1 | – | – | – | – | –
27 | 1.21 | 1.15 | 1.28 | 1.52 | – | – | O=C(c1ccc(Br)cc1)N1CCN(Cc2noc(Cc3c[nH]c4ccccc34)n2)CC1 | – | – | – | – | –
28 | 3.14 | 1.38 | 5.88 | 5.18 | Active | Active | N#Cc1ccc(CN2CCN(Cc3noc(Cc4c[nH]c5ccccc45)n3)CC2)cc1 | Active | Non-Toxic | Active | Dose-Dependent Effect | Dose-Dependent Effect
29 | 1.12 | 1.15 | 1.43 | 1.47 | – | – | COc1cccc(CN2CCN(Cc3noc(Cc4c[nH]c5ccccc45)n3)CC2)c1 | – | – | – | – | –
30 | 1.51 | 1.09 | 1.64 | 2.09 | – | – | c1ccc(CN2CCN(Cc3noc(Cc4c[nH]c5ccccc45)n3)CC2)cc1 | – | – | – | – | –
31 | 1.42 | 1.36 | 1.54 | 1.86 | – | – | Fc1cccc(CN2CCN(Cc3noc(Cc4c[nH]c5ccccc45)n3)CC2)c1 | – | – | – | – | –
32 | 2.16 | 1.45 | 3.14 | 3.56 | – | – | Brc1ccc(CN2CCN(Cc3noc(Cc4c[nH]c5ccccc45)n3)CC2)cc1 | – | – | – | – | –
33 | 1.78 | 1.18 | 2.11 | 2.45 | – | – | Cc1ccc(CN2CCN(Cc3noc(Cc4c[nH]c5ccccc45)n3)CC2)cc1 | – | – | – | – | –
34 | 1.51 | 1.09 | 1.86 | 2.04 | – | – | c1ccc2cc(CN3CCN(Cc4noc(Cc5c[nH]c6ccccc56)n4)CC3)ccc2c1 | – | – | – | – | –
